Experimental data published in patent publication US20120015399A1, “FLUORESCENT SOLVATOCHROMIC PIGMENT” (National University Corporation Hokkaido University, priority 2009, published 2012).

How the values were obtained:
[1] = Fluorescence emission in water in the presence of additives (lecithin, β-cyclodextrin, Triton X-100, CTAB, SDS); format: physicochemical; conditions: additives in deionized water, excitation 488 nm, FIG. 5
Protocol: After adding 5 milliliters of deionized water, the mixtures were sonicated with ultrasound for 20 seconds. The supernatant solution was irradiated with light at 488 nm, and the light emitted was measured using a fluorescence spectrophotometer (F-4500). […] After adding 5 milliliters of deionized water, the mixtures were sonicated with ultrasound for 20 seconds. The supernatant solution was irradiated with light at 450 nm, and the light emitted was measured using a fluorescence spectrophotometer (F-4500).

[2] = tested on: macrophage cells (RAW264); experiment: Staining of macrophage cells, confocal laser fluorescence microscopy; format: cell-based; conditions: stain solution in calf serum/D-MEM 1:9, fifteen minutes, 37° C., argon laser 488 nm, FIG. 9
Protocol: In the present Example, macrophage cells were stained using the pyridinium derivatives shown in Table 1 and the differences in cell staining were compared in order to investigate the effects of the alkyl chain lengths in R^7 and R^8.
Several micrograms of each pyridinium derivative (Compounds 10 and 21 to 23) were added to 10 milliliters of a liquid medium obtained by mixing calf serum and D-MEM base medium in a 1:9 ratio. The mixtures were left standing in a refrigerator overnight to dissolve the solids. 5 milliliters of the supernatant solutions were removed the next day and were used as cell staining solutions after filtering the solutions through sterilizing membrane filters with a pore diameter of […] p.m.
The macrophage cells (RAW264 of ATCC Co., Ltd.) were floated in HydroCell dishes manufactured by Cell Seed Co., Ltd. using a liquid culture obtained by mixing calf serum and D-MEM base medium in a 1:9 ratio.
The media were removed from the glass bottom dishes on which the RAW264 cells were supported, and 0.2 ml of each stain solution was added. The cells were stained by leaving the dish standing for fifteen minutes in a CO2 incubator at 37° C. The stain solutions were subsequently removed, and the media were exchanged three times using a liquid medium obtained by mixing calf serum and D-MEM base medium in 1:9 ratio. […] The results are shown in terms of fluorescence microscopic images (FIG. 9).

[3] = tested on: human fetus kidney-derived HEK293 cells; experiment: Staining of HEK293 cells, location of dye and emitted light wavelength; format: cell-based; conditions: stain solution in calf serum/D-MEM 1:9, fifteen minutes, 37° C., argon laser 488 nm, FIG. 10
Protocol: In the present Example, human fetus kidney-derived HEK293 cells were stained using Compound 10, and the location of the dye and emitted light wavelength were examined.
Several micrograms of Compound 10 was added to 10 milliliters of a liquid medium obtained by mixing calf serum and D-MEM base medium in a 1:9 ratio. The mixture was left standing in a refrigerator overnight to dissolve the solids. 5 milliliters of the supernatant solution was removed the next day and was used as a cell staining solution after filtering the solution through a sterilizing membrane filter with a pore diameter of […]
The human fetus kidney-derived cells HEK293 (Riken Cell Bank) were cultured in a five milliliter culture flask using a liquid culture obtained by mixing calf serum and D-MEM base medium in a 1:9 ratio. The solution was used to inoculate a glass bottom dish.
The medium was removed from the glass bottom dish on which the HEK293 cells were supported, and 0.2 ml of the stain solution was added. The cells were stained by leaving the dish standing for fifteen minutes in a CO2 incubator at 37° C. The stain solution was subsequently removed, and the medium was exchanged three times using a liquid medium obtained by mixing calf serum and D-MEM base medium in a 1:9 ratio.

For `CCCCCCN(CCCCCC)c1ccc(-c2ccc(-c3cc[n+](C)cc3)s2)cc1.O=S(=O)([O-])C(F)(F)F` [Compound 10, {4-[5-(4-dihexylamino)phenyl]thiophene-2-yl}-1-methylpyridinium trifluoromethane sulfonate], the “Fluorescence wavelength response to local environment” value [1] was “respond sensitively to the local environment in terms of fluorescence wavelength”, the Cell staining pattern [2] was “the cell membrane and mitochondria were selectively stained” and the “Emitted light color by location in cell” value [3] was “different for the cell membrane (1 in the figure) and mitochondria”.
